Experimental data from US7078422B2, “Activator for peroxisome proliferator-activated receptor” (Nippon Chemiphar Co., Ltd., priority 2001, dated 2006).

Legend:
GAL4-hPPARγ LBD = biological target: T1, GAL4-hPPARγ LBD (Homo sapiens, UniProt P37231); experiment: PPARγ transactivation activity (GAL4 chimeric receptor luciferase reporter in CV-1 cells); type: cell-based; details: tested compound at 10^−5 M, control 10^−5 M Rosiglitazone set to 100%, DMSO alone 0%, 40 hours
T1 construct: Receptor expression plasmid (GAL4-hPPARγ LBD, GAL4-hPPARδ LBD); expressed in transfected cells; host or cells: CV-1 cells
T1 sequence (P37231 238-503 limits assumed): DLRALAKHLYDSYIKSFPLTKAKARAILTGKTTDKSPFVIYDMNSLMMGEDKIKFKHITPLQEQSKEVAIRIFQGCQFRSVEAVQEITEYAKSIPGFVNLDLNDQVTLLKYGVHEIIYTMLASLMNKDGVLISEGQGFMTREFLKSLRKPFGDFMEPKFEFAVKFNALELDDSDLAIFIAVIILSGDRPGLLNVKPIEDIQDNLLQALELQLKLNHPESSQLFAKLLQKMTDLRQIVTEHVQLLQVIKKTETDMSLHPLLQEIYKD
Procedure: (§1) The luciferase activity is calibrated by the β-GAL activity. A relative ligand activity relating to PPARγ-activating effect is calculated in the same manner (see the below-described Example 3).
(§2) (1) Measurement of PPARγ, δ Transactivation Activity
(§3) Each of PPARγ & δ transactivation activities of the tested compound [compound of Example 1 and known PPARγ agonist (Rosiglitazone) and known PPARδ agonist (L-165041)] was measured in the manner described below.
CV-1 was obtained from Tohoku University Aging Medical Laboratory, Medical Cell Collection Center. All test compounds were dissolved in dimethylsulfoxide (DMSO) to give a test sample of 0.1% concentration.
Receptor expression plasmid (GAL4-hPPARγ LBD, GAL4-hPPARδ LBD), Luciferase expression plasmid (UASx4-TK-LUC), and β-galactosidase expression plasmid (βGAL) similar to Kliewer, S. A., et al., ((1992) Nature, 358:771–774) were employed. […]
The culture medium was removed and the cells were washed with PBS twice. […] (luciferase activity) was measured by means of MLR-100 type Microluminoreader (available from Corona Electrics Co., Ltd.). […] A relative PPAR activity was calculated based on the following: 0% (luciferase activity (control value) of cells treated with DMSO (0.1% concentration, solvent) alone), 100% (luciferase activity of cells treated with a control reagent (PPARγ: 10^−5 M Rosiglitazone, PPARδ: 10^−4 M L-165041)).

GAL4-hPPARδ LBD = biological target: T2, GAL4-hPPARδ LBD (Homo sapiens, UniProt Q03181); experiment: PPARδ transactivation activity (GAL4 chimeric receptor luciferase reporter in CV-1 cells); type: cell-based; details: tested compound at 10^−5 M, control 10^−4 M L-165041 set to 100%, DMSO alone 0%, 40 hours
T2 construct: A chimeric receptor expression plasmid (GAL4-hPPARδ LBD); expressed in transfected cells; host or cells: CV-1 cells
T2 sequence (Q03181 211-439 limits assumed): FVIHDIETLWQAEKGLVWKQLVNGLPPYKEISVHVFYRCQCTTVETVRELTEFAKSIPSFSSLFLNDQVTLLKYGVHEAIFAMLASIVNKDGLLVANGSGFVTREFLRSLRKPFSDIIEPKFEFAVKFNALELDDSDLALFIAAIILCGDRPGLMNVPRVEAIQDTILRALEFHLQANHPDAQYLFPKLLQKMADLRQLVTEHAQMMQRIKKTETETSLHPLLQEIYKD
Procedure: The PPARδ activating effect of the compound of the invention was determined by the following method:
A chimeric receptor expression plasmid (GAL4-hPPARδ LBD), a reporter plasmid (UASx4-TK-LUC) and β-galactosidase (β-GAL) are transfected into CV-1 cells by utilizing a lipofection reagent DMRIE-C (Life Technologies). Subsequently, it is incubated for 40 hours in the presence of a compound of the invention or a compound for comparison (GW-2433), and then the luciferase activity and β-GAL activity are measured on the soluble cells.
as §1, §2, §3
CV-1 was obtained from Tohoku University Aging Medical Laboratory, Medical Cell Collection Center. All test compounds were dissolved in dimethylsulfoxide (DMSO) to give a test sample of 0.1% concentration. […]
The culture medium was removed and the cells were washed with PBS twice. […] (luciferase activity) was measured by means of MLR-100 type Microluminoreader (available from Corona Electrics Co., Ltd.). […]

PPAR activity (relative value) for PPARγ (GAL4-hPPARγ LBD): 50%
PPAR activity (relative value) for PPARδ (GAL4-hPPARδ LBD): 93±3%
SMILES: CC(C)c1oc(-c2ccccc2Cl)nc1CCCC(=O)c1ccc(CC(=O)O)cc1 [Example 1, [4-[4-[2-(2-Chlorophenyl)-5-isopropyloxazol-4-yl]butyryl]phenyl]acetic acid]
